Source: paper PMC9486805, “Identification of a Phage Display-Derived Peptide Interacting with the N-Terminal Region of Factor VII Activating Protease (FSAP) Enables Characterization of Zymogen Activation” (ACS Chemical Biology, 2022)

How the values were obtained:
[1] = target: T1, pro-FSAP purified from human plasma (Homo sapiens, UniProt Q14520); experiment: Pro-FSAP activation assay, purified pro-FSAP, chromogenic substrate S-2288; assay type: biochemical
T1 construct: Pro-FSAP was isolated from human plasma as described before; from tissue; host or cells: human plasma
T1 sequence (Q14520 24-560): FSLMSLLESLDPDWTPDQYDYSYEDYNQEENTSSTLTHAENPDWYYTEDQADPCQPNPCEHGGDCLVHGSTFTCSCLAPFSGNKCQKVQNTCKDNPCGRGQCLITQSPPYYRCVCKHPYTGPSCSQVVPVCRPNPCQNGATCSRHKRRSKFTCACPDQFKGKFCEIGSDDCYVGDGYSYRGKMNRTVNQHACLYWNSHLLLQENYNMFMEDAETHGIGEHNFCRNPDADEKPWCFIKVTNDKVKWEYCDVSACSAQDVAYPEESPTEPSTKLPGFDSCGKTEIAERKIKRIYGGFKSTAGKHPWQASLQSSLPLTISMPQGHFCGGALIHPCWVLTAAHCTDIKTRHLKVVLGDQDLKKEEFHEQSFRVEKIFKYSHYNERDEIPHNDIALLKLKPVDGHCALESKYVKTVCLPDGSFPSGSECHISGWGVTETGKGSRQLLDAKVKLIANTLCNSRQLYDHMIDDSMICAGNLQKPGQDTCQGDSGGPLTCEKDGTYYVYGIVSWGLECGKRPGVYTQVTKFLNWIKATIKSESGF
Procedure: Figure 1 Isolation of pro-FSAP binding peptides and their activity: (A) strategy to isolate high-affinity phages from the NNKC9 and NNK11 libraries that bind to pro-FSAP. To select for strong binders, an excess of free pro-FSAP protein was used for competitive elution of low-affinity binders. High-affinity binders retained on the beads were analyzed further. The sequences of major positive clones identified through an ELISA-based binding assay from the NNKC9 and NNK11 libraries are shown. (B) NNK11/189 and scrambled controls (0–50 μM) and histones (0–50 μg/mL) were added to purified pro-FSAP (1.0 μg/mL) and the turnover of the chromogenic substrate S-2288 (200 μM) was measured. (C) NNKC9/41 was compared to a peptide that was synthetically monocyclized (Cys–Cys cyclic), a peptide with Ser residues instead of Cys at both ends (Ser–Ser linear), a peptide with Ser residues at the end cyclized head to tail (Ser–Ser cyclic), and a scrambled peptide in a pro-FSAP activation assay. (D) Hirudin plasma (1:12 dilution) was incubated with histones (25 μg/mL), NNKC9/41, or Ser–Ser linear control (each, 25 μM), the fluorogenic substrate turnover (Ac–Ala–Lys–Nle–Arg–AMC) was monitored in duplicate wells, and results from a single well are shown. In panels (B) and (C), results are shown as mean + range (duplicate wells). Results were replicated with five different batches of NNKC9/41 (panels (B) and (C)).
Pro-FSAP was isolated from human plasma as described before.[14] The content of the zymogen form varied from 50% to 90% due to autoactivation during the purification process. Histones, isolated from the calf thymus, were obtained from Sigma-Aldrich (Oslo, Norway). FSAP activity assays were performed as described previously.[51] In brief, microtiter wells were blocked with TBS (25 mM Tris–HCl, pH 7.5, and 150 mM NaCl) containing 3% (w/v) BSA for 1 h and washed with TBS-T. The standard assay consisted of TBS-T with 0.3% (w/v) BSA and CaCl2 (2 mM) 1 μg/mL (15 nM) plasma purified pro-FSAP and 250 μM chromogenic substrate S-2288 (D-Ile-L-Pro-L-Arg-p-nitroaniline dihydrochloride) (Haemochrome Diagnostica, Essen, Germany) and was followed at 37 °C at 405 nm in a microplate reader Synergy HI plate reader (BioTek Instruments, Winooski). In some experiments, a fluorescent substrate of FSAP[35] was used.

pro-FSAP in human plasma = target: T2, pro-FSAP in human plasma (Homo sapiens, UniProt Q14520); experiment: Activation of endogenous pro-FSAP in plasma, fluorogenic substrate turnover; assay type: biochemical
T2 construct: from tissue; host or cells: human hirudin or citrate plasma from healthy donors, diluted 1:12
T2 sequence (Q14520 24-560): as above
Procedure: Human citrate plasma (0.38% w/v) or hirudin plasma (25 μg/mL Lepirudin) was obtained from five healthy donors. Plasma was diluted at 1:12 and mixed with various test substances that potentially activate or inhibit pro-FSAP. Ac–Ala–Lys–Nle–Arg–AMC (amino–methyl–coumarin) was used as a sensitive and specific substrate for FSAP.[35] Hydrolysis of the fluorogenic substrates was measured using a Synergy HI plate reader with excitation at 320 nm and emission at 460 nm at 37 °C for 60 min. The maximal velocity was calculated from the linear part of the progress curve. In limited experiments, the second-generation fluorogenic FSAP substrate (Ac–Pro–DTyr–Lys–Arg–AMC)[34] was used. Pro-uPA activation, formation of FSAP−α2-antiplasmin, and western blotting with anti-FSAP antibodies were also used to monitor pro-FSAP activation.

plasminogen = experiment: Specificity towards pro-enzymes: plasminogen; assay type: biochemical; conditions: plasminogen 50 nM; peptide 0-50 μM; CS41; duplicates, 3 experiments (Fig S7)
Procedure: Fig S7. […]
Bend, IN, USA) except plasminogen and FSAP, which were isolated in house; and pro-uPA was from Grünenthal (Stolberg, Germany). All chromogenic substrates were from Hyphen Biomed (Neuville Sur Oise, France). Experiments were carried out in TBS with Tween-20 (0.1 % wt/ vol) BSA (0.3% wt/vol) and CaCl2 (2 mM). Absorbance at 405 nm was measured over time and the enzyme activity is depicted was measured in duplicates (mean + or -range) and similar results were obtained in 3

pro-FSAP in MI/MI plasma = experiment: Substrate turnover in MI/MI plasma; assay type: biochemical, human; conditions: MI/MI citrate plasma 1:12; 25 μM (Fig 6A)
Procedure: Figure 6 Pro-FSAP activation and clotting in plasma by NNKC9/41: (A) citrate plasma (1:12 dilution) from donors with WT/WT, WT/MI, and MI/MI genotypes and WT-FSAP-deficient plasma (FSAP-DP) were compared. Substrate turnover was monitored after addition of NNKC9/41 or the Ser–Ser linear peptide (25 μM each). Results are shown as mean + range of duplicate wells. (B) Pooled prothrombin-deficient citrated plasma (1:5 dilution) was recalcified with 10 mM CaCl2 and incubated with NNKC9/41 or scrambled control peptide (0–25 μM each) for 60 min at 37 °C in the presence or absence of the FSAP-inhibitory MA-FSAP-38C7 (5 μg/mL). Initiation of clotting was achieved by adding the tissue factor/phospholipid and prothrombin complex concentrate. Clotting time was measured as diluted prothrombin time (dPT) in seconds. Data are the mean of three independent experiments. The relative dPT in % of the untreated control is presented as mean ± standard error (SE) (*p <0.05, two-way analysis of variance (ANOVA) and Bonferroni post-test).
Human citrate plasma (0.38% w/v) or hirudin plasma (25 μg/mL Lepirudin) was obtained from five healthy donors. […] Hydrolysis of the fluorogenic substrates was measured using a Synergy HI plate reader with excitation at 320 nm and emission at 460 nm at 37 °C for 60 min. The maximal velocity was calculated from the linear part of the progress curve. […]

CRGAMWMYKRC [NNKC9/41]
effect on pro-FSAP activation ([1]; purified pro-FSAP 1.0 μg/mL, peptides 0–50 μM, histones 0–50 μg/mL, S-2288 (200 μM in legend b10, 250 μM in method b60), 37 °C, 405 nm, duplicate wells): able to robustly activate pro-FSAP | Maximal activation ([1]; purified pro-FSAP, S-2288, linear synthetic peptide stored under oxidative conditions, duplicate wells, five batches): 2–2.5 fold | selectivity for pro-FSAP activation ([1]; versus plasminogen, pro-urokinase, factor XII, prothrombin, factor X and active enzymes): very high selectivity | inhibitory effect of citrate after recalcification (pro-FSAP in human plasma; citrate plasma 1:12, recalcified, data not shown): reversed by recalcification | effect in citrate plasma 1:12 (pro-FSAP in human plasma; citrate plasma 1:12, 10 μM, 3 donors (Fig S5)): weak | fluorogenic substrate turnover vs histones (pro-FSAP in human plasma; hirudin plasma 1:12, NNKC9/41 0–25 μM, histones 0–25 μg/mL, three donors (Fig 4A)): stronger effect than histones | pro-FSAP activation in plasma (pro-FSAP in human plasma; hirudin plasma 1:12, peptides 25 μM, histones 25 μg/mL, Ac–Ala–Lys–Nle–Arg–AMC, duplicate wells (Fig 1D)): robust activation of pro-FSAP comparable to that with histones | pro-FSAP activation in hirudin plasma (pro-FSAP in human plasma; hirudin plasma, dilutions 1:2 to 1:12, 10 μM, 3 donors (Fig S5)): activated pro-FSAP in plasma | lag time of pro-FSAP activation (pro-FSAP in human plasma; plasma, compared to histones (Fig 1D)): > 15 min | effect on activity (plasminogen): did not influence the activity | substrate turnover (pro-FSAP in MI/MI plasma): none
